In US7851006B2, “Taste potentiator compositions and beverages containing same” (Cadbury Adams USA LLC, priority 2005, dated 2010):

What was measured:
[1] = tested on: perceived sweetness of pH 3.2 buffered sucrose solution (expert panel members); assay: Sucrose Equivalent Value (SEV): expert panel matches test solution to stock sucrose solutions; format: in vivo; details: for effect on sweetness of the sucrose solution (dose response curve): 0 to 1000 ppm in pH 3.2 buffered 5% sucrose solution; for sweetness enhancement of sucrose solutions by different forms of 2,4-DHB: 500 ppm in pH 3.2 buffered 0%, 3%, 5%, 7% and 9% sucrose; for SEV (%): 500 ppm potentiator in pH 3.2 buffered solution containing 5% sucrose
Procedure: (§1) One method of measuring the perceived sweetness of a solution is to match it with a stock sucrose solution of known concentration. In the present experiments, the compound of interest is added at a predetermined concentration to a pH 3.2 buffered solution containing 5% sucrose. A number of expert panel members then taste the solution and compare it to a battery of stock sucrose solutions ranging from 3% to 15% at increments of 1%. Each panel member decides which sucrose solution is equisweet with the solution containing the compound of interest. The mean value is then reported as the SEV. Results are reported to 1 decimal place.
In accordance with this methodology, 3-HB was added to a pH 3.2 buffered solution containing 5% sucrose to produce solutions containing from 0 to 1000 ppm 3-HB in 100 ppm increments. […] From FIG. 1 it is apparent that as the dosage of 3-HB increases so does the sweetness of the resultant solution. However the effect is non-linear with each incremental addition having a diminishing effect. The maximum sweetness attainable would appear to be about 7.9% SEV (based on a 5% sucrose solution).
The same methodology as described in Example 1 was repeated with 2,4-DHB in place of 3-HB, to produce the dose response curve for 2,4-DHB (FIG. 2). […] The maximum attainable sweetness would appear to be about 6.7% SEV (based on a 5% sucrose solution).
500 ppm of a sweetener potentiator was added to a pH 3.2 buffered solution containing 5% sucrose and the SEV of the resultant solution determined.
500 ppm of the sweetener potentiator then was added to a 5% sucrose solution containing 500 ppm 3-HB to produce a series of solutions. […] The use of 500 ppm of 3-HB alone results in an SEV of 6.9% whereas in all cases but two (2,4-DHB and 3,4-DHB) the addition of a second sweetener potentiator results in a little change or even a decrease in SEV. This is highly surprising considering that all of the potentiators are shown to have SEVs greater than 5%.
The methodology was repeated to produce a series of solutions containing 500 ppm 2,4-DHB and 500 ppm of a second sweetener potentiator.
500 ppm of 3-HB, 500 ppm of 2,4-DHB and 500 ppm of 3,4-dihydroxybenzoic acid (3,4-DHB) were added to a pH 3.2 buffered solution containing 5% sucrose and the SEV determined. The results are shown in FIG. 7 together with other combinations of 3-HB, 2,4-DHB and 3,4-DHB for comparison. The solution containing the combination of 3-HB and 2,4-DHB (hatched) has a much higher SEV (8.7%) than the combination of either 3,4-DHB and 3-HB (7.6%) or the combination of 3,4-DHB and 2,4-DHB (6.8%). The three-way combination of the embodiment (hatched) is better still with an SEV of 9.8%.
pH 3.2 buffered solutions were prepared containing 0%, 3%, 5%, 7% and 9% sucrose. 500 ppm of 2,4-DHB acid, 500 ppm of the sodium salt of 2,4-DHB and 500 ppm of the potassium salt of 2,4-DHB were added individually to each of the sucrose solutions. The SEV for each of the solutions was then determined.
500 ppm of 3-aminobenzoic acid and 500 ppm of 4-aminobenzoic acid were individually added to separate pH 3.2 buffered solutions containing 5% sucrose and the SEVs of the resultant solutions were determined. The SEV of 3-aminobenzoic acid was about 7%, i.e., increased the sweetness intensity of 5% sucrose to about 7%. The SEV of 4-aminobenzoic acid was about 5.5-6%, i.e., increased the sweetness intensity of 5% sucrose to about 5.5-6%.

[2] = tested on: sweetness perception of sweeteners; details: cited from earlier work
[3] = tested on: perceived sweetness of non-sucrose sweetener solutions (SEV about 5%); assay: SEV of non-sucrose sweetener solutions after addition of potentiators; format: in vivo; details: 500 ppm 3-HB alone versus with 500 ppm 2,4-DHB, pH 3.2
Procedure: as §1
The SEV of each sweetener solution was then evaluated after the addition 500 ppm of 3-HB, the addition of 500 ppm of 2,4-DHB and the addition of both 500 ppm 3-HB and 2,4-DHB.

Q: Which results are given for `O=C(O)c1ccc(O)cc1O` [2,4-dihydroxybenzoic acid (2,4-DHB), 2,4-dihydroxybenzoic acid]?
A: effect on sweetness of the sucrose solution (dose response curve) [1]: enhances the sweetness of the sucrose solution; sweetness enhancement of sucrose solutions by different forms of 2,4-DHB [1]: enhances the sweetness of the sucrose solution in every case; effect on sweetness intensity of sucralose and aspartame ([2]; FIGS. 1 and 2, Tables 1 and 2 of US 6,461,658): slightly inhibitory effect; listed taste character ([2]; US 5,232,735): substantially tasteless sweetness inhibitor; effect on sweetness delivery profile of sucralose ([2]; US 6,461,658): significantly reducing the length of time during which sucralose sweetness is perceived; effect on sweetness delivery profile of aspartame ([2]; US 6,461,658, compared with effect on sucralose): The same effect is not observed for aspartame; effect on sweetness of aspartame ([2]; WO99/15032): increase sweetness synergistically; effect with alitame, Ace-K, saccharin or a mixture of aspartame and Ace-K ([2]; WO99/15032, compared with effect on aspartame): same effect is not observed; effect on sweetness of 5% sucrose solution ([2]; addition of 0.2% 2,4-DHB, Canadian Patent No. 1208966): increase in sweetness

Q: Which “SEV (%)” value [1] does the source give for `O=C(O)c1cc(O)c(O)c(O)c1` [3,4,5-tryhydroxybenzoic acid (3,4,5-THB), 3,4,5-tryhydroxybenzoic acid] here?
A: 5.1%

Q: Which “SEV (%)” value [1] does the source give for `O=C(O)c1ccc(O)c(O)c1` [3,4-dihydroxybenzoic acid (3,4-DHB), 3,4-dihydroxybenzoic acid] here?
A: 6.4%

Q: For `O=C(O)c1cccc(O)c1` [3-hydroxybenzoic acid (3-HB), 3-hydroxybenzoic acid], which “effect on sweetness of the sucrose solution (dose response curve)” value [1] is on record?
A: enhances the sweetness of the sucrose solution

Q: What about the “SEV of solution containing 500 ppm 2,4-DHB and 500 ppm of a second sweetener potentiator” value ([1]; second potentiator 500 ppm added to 500 ppm 2,4-DHB, 5% sucrose) of the same molecule?
A: significant positive effect

Q: What about the “sweetness enhancement of saccharin solution, alone versus combination” value [3] of the same molecule?
A: enhances the sweetness to a greater degree alone than in combination with 2,4-DHB

Q: What about the “effect on sweetness of sucrose, aspartame and saccharin” value ([2]; pH 2.0 to 5.5, EP 0132444 and US 4,627,987) of the same molecule?
A: enhance sweetness

Q: Which “sweetness enhancement of sucrose solutions by different forms of 2,4-DHB” value [1] does the source give for `O=C([O-])c1ccc(O)cc1O.[K+]` [potassium salt of 2,4-DHB] here?
A: enhances the sweetness of the sucrose solution in every case

Q: For `O=C([O-])c1ccc(O)cc1O.[Na+]` [sodium salt of 2,4-DHB], which “sweetness enhancement of sucrose solutions by different forms of 2,4-DHB” value [1] is on record?
A: enhances the sweetness of the sucrose solution in every case
